Experimental data: patent EP0887077A1, “Use of azulene derivatives as metalloprotease inhibitors” (BOEHRINGER MANNHEIM GMBH, priority 1997, dated 1998)

The molecules below were run on TNF-α (assay: Inhibition of LPS-induced TNFα release from peripheral human leukocytes, TNFα-specific enzyme immunoassay of culture supernatant). Conditions: Leukocyte, Periphere humane Leukozyten, LPS über 22 Std., TNFα im Kulturüberstand.
Type: cell-based
Source text: Periphere humane Leukozyten werden mit LPS über 22 Std. inkubiert. Der Kultutüberstand wird mit einem TNFα spezifischen Enzym-Immuno-Assay untersucht. Durch Vergleich der für die Messproben erhaltenen TNFα-Konzentrationen mit den ungehemmten Proben wird die prozentuale Hemmung für die einzelne Probe berechnet. Aus der Konzentrationsabhängigkeit der Hemmwerte werden rechnerisch die IC50-Werte bestimmt. […]
Die IC50-Werte der oben genannten Substanzen, die Gegenstand dieses Patentes sind, gegen TNF-α finden sich in der folgenden Tabelle;

IC50	Structure (SMILES)
0.2 µM	CCOC(=O)Cc1ccc2c(C(=O)OCC)c(N)c(C(=O)OCC)c-2cc1 [Verbindung 1, 2-Amino-6-ethoxycarbonylmethyl-azulen-1,3-dicarbonsäurediethylester]
0.05 µM	CCOC(=O)Cc1ccc2c(C(=O)OCC)c(N(C(C)=O)C(C)=O)c(C(=O)OCC)c-2cc1 [Verbindung 2, 2-Diacetylamino-6-ethoxycarbonylmethyl-azulen-1,3-dicarbonsäurediethylester]
0.18 µM	CCOC(=O)c1c2ccc(C(C(=O)OCC)C(=O)OCC)ccc-2c(C(=O)OCC)c1N(C(C)=O)C(C)=O [Verbindung 3, 6-(Bis-ethoxycarbonylmethyl)-2-diacetylamino-azulen-1,3-dicarbonsäurediethylester]
1.3 µM	CCOC(=O)c1c2ccc(Br)ccc-2c(C(=O)OCC)c1N(C(C)=O)C(C)=O [Verbindung 4, 6-Bromo-2-diacetylamino-azulen-1,3-dicarbonsäurediethylester]
1.1 µM	CCOC(=O)c1c2ccc(Br)ccc-2c(C(=O)OCC)c1NC(C)=O [Verbindung 5, 2-Acetylamino-6-bromo-azulen-1,3-dicarbonsäurediethylester]
11.9 µM	CCOC(=O)Cc1ccc2c(C(=O)OCC)c(OCC)c(C(=O)OCC)c-2cc1 [Verbindung 6, 2-Ethoxy-6-ethoxycarbonylmethyl-azulen-1,3-dicarbonsäurediethylester]
25.4 µM	CCOC(=O)c1c2cccccc-2c(C(=O)OCC)c1N [Verbindung 7, 2-Amino-azulen-1,3-dicarbonsäurediethylester]
26 µM	CCOC(=O)c1c2ccc(S)ccc-2c(C(=O)OCC)c1N [Verbindung 8, 2-Amino-6-mercapto-azulen-1,3-dicarbonsäurediethylester]
2.7 µM	CCOC(=O)C(Cc1ccc2c(C(=O)OCC)c(Cl)c(C(=O)OCC)c-2cc1)=NO [Verbindung 9, 2-Chloro-6-(2-ethoxycarbonyl-2-hydroxyimino-ethyl)-azulen-1,3-dicarbonsäurediethylester]
10.7 µM	Cc1cc(C=CC=O)c2c(C)ccc(C(C)C)cc1-2 [Verbindung 10, 3-(5-isopropyl-3,8-dimethyl-azulen-1-yl)-propenal]
